Laboratory results published in patent US7378532B2, “Fused pyrazolyl compound” (Yung Shin Pharmaceutical Ind. Co., Ltd., priority 2004, dated 2008).

Experiments:
[1] = test system: Human lung cancer cells, NCI-H226; experiment: Inhibition of cancer cell growth (sulforhodamine B assay); format: cell-based; details: human lung cancer cells NCI-H226, 48 hr incubation, eight concentrations, SRB stain, absorbance 515 nm
Description: Human lung cancer cells, NCI-H226, were placed in 96-well microtiter plates (5,000 cells/100 μl/well). The plates were incubated at 37° C. under 5% CO2 and 95% air and 100% relative humidity for 24 hr. Cells in one plate were fixed in situ with trichloroacetic acid (TCA) to measure the cell population.
Compound 1 was dissolved in dimethylsulfoxide (DMSO) to give a solution at 400-fold the desired final maximum test concentration and stored frozen. An aliquot of the frozen DMSO solution was thawed and diluted to twice the desired final maximum test concentration. Additional ½ log serial dilutions were made to provide a total of eight concentrations. 100 μl aliquots of these different dilutions were added to the microtiter wells, resulting in the required final drug concentrations. After Compound 1 was added, the plates were incubated at 37° C. under 5% CO2 and 95% air and 100% relative humidity for an additional 48 hr. The cells were fixed in situ by slow addition of 50 μl of cold 50% (w/v) TCA and incubated at 4° C. for 60 minutes. The supernatant was removed, and the plates were gently washed twice with water and air-dried. […] The bound stain was subsequently solubilized with 10 mM trizma base, and absorbance was measured by an automated plate reader at the wavelength of 515 nm.

SMILES	melting point [°C]	inhibition of growth of NCI-H226 [1]
O=C(O)CCC(=O)OCc1ccc(-c2nn(-c3ccc(Br)cc3)c3ccccc23)o1 [Compound 12, succinic acid mono-[5-(1-(4-bromo-phenyl)-1H-indazol-3-yl)-furan-2-ylmethyl]ester]	111 to 112.7	
O=C(O)CCC(=O)OCc1ccc(-c2nn(Cc3ccccc3)c3ccccc23)o1 [Compound 1, succinic acid mono-[5-(1-benzyl-1H-indazol-3-yl)-furan-2-ylmethyl]ester]		effectively inhibited growth of NCI—H226
Cc1cc2c(o1)c(-c1ccc(COC(=O)CCC(=O)O)o1)nn2Cc1ccccc1 [Compound 7, succinic acid mono-[5-(1-benzyl-5-methyl-1H-furo[3,2-C]pyrazol-3-yl)-furan-2-ylmethyl]ester]	126.3 to 129	
